These antisense oligonucleotides have a phosphorothioate backbone; sugars and methylation of C are not fully specified.
Target: BIRC5
Conditions: ASO
Further: test concentration or dose not given here.

Sequence | remaining target (mRNA or protein) (fraction of control)
AAAAGGAGTATCTGCCAG | 0.61
AAAGAGAGAGAGAGAGAG | 0.82
AAGCAGCCACTGTTACCA | 0.36
ACAGGAAGGCTGGTGGCA | 0.3
ACAGGCAGAAGCACCTCT | ≥ 1
ACAGTTGAAACATCTAAT | ≥ 1
ACTGTGGAAGGCTCTGCC | ≥ 1
AGGACTGTGACAGCCTCA | 0.38
AGGGACACTGCCTTCTTC | 0.57
ATGACAGGGAGGAGGGCG | ≥ 1
ATTCTCTAATCACACACA | 0.74
CAAGTCTGGCTCGTTCTC | ≥ 1
CCACGCGAACAAAGCTGT | 0.38
CCGTGTGGAGAACGTGAC | 0.78
CCTCTGCCAACGGGTCCC | 0.96
CCTGGAAGTGGTGCAGCC | 0.84
CGATGGCACGGCGCACTT | 0.28
CTGTCTCCTCATCCACCT | 0.59
CTTTCAAGACAAAACAGG | ≥ 1
GACTTAGAATGGCTTTGT | 0.63

Sequence | remaining target (mRNA or protein) (fraction of control)
GAGGAGCGGCCAGCATGT | 0.53
GCCGAGATGACCTCCAGA | 0.34
GCGATTCAAATCTGGCGG | ≥ 1
GCTTCTTGACAGAAAGGA | 0.65
GGCGCAGCCCTCCAAGAA | 0.62
GGCTGACAGACACACGGC | 0.59
GGTCGTCATCTGGCTCCC | 0.64
GGTTAATTCTTCAAACTG | ≥ 1
TACGCCAGACTTCAGCCC | 0.99
TCAGATTCAACAGGCACC | ≥ 1
TCCAGCTCCTTGAAGCAG | 0.68
TCCCTCACTTCTCACCTG | 0.71
TCGCAGTTTCCTCAAATT | 0.63
TCTTATTGTTGGTTTCCT | ≥ 1
TCTTGGCTCTTTCTCTGT | 0.66
TGAGAAAGGGCTGCCAGG | 0.54
TGTGCTATTCTGTGAATT | 0.8
TGTTGTTAAACAGTAGAG | ≥ 1
TTCTTGAATGTAGAGATG | ≥ 1
TTTGAAAATGTTGATCTC | 0.92

Target: MAP2K2
Conditions: ASO

Sequence | remaining target (mRNA or protein) (fraction of control)
AACACACCGTTGGGCAGC | 0.13
ACGCAGGGAGCCCGGCCA | 0.29
AGCGTCGCCCGTCCCCAG | 0.15
AGCTTCCTGGCCATGATG | 0.36
ATCTCAAGGTGGATCAGC | 0.71
ATGATCTGGTTCCGGATG | 0.35
CACTTCTTCCACCTCGGA | 0.31
CAGATGTCCGACTGCACC | 0.32
CCGTTGCCCGCGCCCAGC | 0.24
CGGTCGGTCGGCTCGAAT | 0.8
CGTGCCCACGAAGGAGTT | 0.26
CGTTCACAATATAGTCCA | 0.4
CTCCTTCTTCCCCGTCGA | 0.4
CTGGTTCAGCCGCAGGGT | 0.34
CTGTGCTGGACTTTGGTG | 0.42
CTTCCTCCGGGCCAGCAT | 0.37
CTTCTGCTGCTCGTCAAG | 0.65
GAGGTACGCCAAGCCCCG | 0.11
GATGTACGGCGAGTTGCA | 0.81
GGTAGGGTTGATGGTGAG | 0.56

Sequence | remaining target (mRNA or protein) (fraction of control)
GGTGCTCTCCGCAGGGTG | 0.2
GGTTCTTGATGAGGCATT | 0.31
GTCACTGTAGAAGGCCCC | 0.38
GTGCATGATCTGGTGCTT | 0.24
GTGCCCTGCAACCGCTCC | 0.14
GTGTCCTCAGCTGGAAGG | 0.61
GTTCACGAGGATGTTGGA | 0.82
GTTTTGTTTTGTAACCTA | 0.72
TAACCTAAGGAAGCAGAG | 0.33
TACCTTCCGACGGCCAGC | 0.18
TCACCCCGAAGTCACACA | 0.56
TCATCGTCTTTGAGTTCG | 0.45
TCCACCAGGTTTGCCTCG | 0.14
TCCATCCCGTGACCGCTG | 0.18
TCTCCTCGGGAATCCTCT | 0.43
TCTTTCAGCACCTGGTCC | 0.48
TGGTTTGTGAGCATCTTC | 0.29
TGTGTTCCATGCAAATGC | 0.75
TTGGCTTTCTGGGTGAGA | 0.83
TTTCGAAGTCATCGTCTT | 0.56

Target: MAP3K5
Conditions: ASO

Sequence | remaining target (mRNA or protein) (fraction of control)
AAGAAGATCAGCTCTGTATT | 0.49
ACCGGCTTATAGTGTCTTCA | 0.73
AGGGTTTCCAGGGTGGCGCC | 0.52
AGTAAACAAATACTGGATTT | 0.77
ATGTCATTGAGTATAGATTC | 0.69
ATGTTGTTGGCCATGCTGAA | 0.31
CAAATTCTCTGAGGCTTGCA | 0.54
CAAATTTAGAAATACTCACT | 0.85
CACTGCTCGAGGAGGTGGCC | 0.47
CAGCTCAAGGGCGCCGCGCT | 0.59
CAGTAACATCTGTCTTTGTG | 0.62
CATCAACAAGCAAGTCGTTA | 0.37
CATCTCTCCGGGCCGGGCAG | 0.61
CCAGAAGCTGCCCGGCGGCG | 0.56
CCGAATTCCCTTGACATCTC | 0.62
CCTCCGTGCTCATCTCTCCG | 0.09
CGCCTCCGTGCTCATCTCTC | 0.1
CGCTGCCCGGCGGCGGCTCG | 0.78
CGTCCGCCTCCGTGCTCATC | 0.12

Sequence | remaining target (mRNA or protein) (fraction of control)
CGTGCTCATCTCTCCGGGCC | 0.12
CTCATCTCTCCGGGCCGGGC | 0.3
CTCCCAGTTCATAAAATGGG | 0.85
CTCTGTCACCATTTTCATCA | 0.41
CTTGAGGTACCATGCTGGTG | 0.36
GAACTATCTGATTGTCATGG | 0.83
GAAGCCGGGTGAGCGGGAAG | 0.34
GCACGATCACATGAATGTTA | 0.58
GCCGGCTGACAAGTCGGCTC | 0.43
GGATGGTGCAGAAGCCCGAG | 0.5
GGCCTCGCTCTCGGCCACCA | 0.03
TCCGCCTCCGTGCTCATCTC | 0.12
TCCGTGCTCATCTCTCCGGG | 0.17
TCTAATGTTCAGGATTATTT | ≥ 1
TCTCTCCGGGCCGGGCAGCA | ≥ 1
TCTGCTTTCAGTGTCCGTGA | 0.21
TGAGCAACAGTCAAGTCTGT | 0.56
TGCTCATCTCTCCGGGCCGG | 0.4

Target: RELA
Conditions: ASO

Sequence | remaining target (mRNA or protein) (fraction of control)
GACAGCGTTCCTTCCCCA | ≥ 1
GACGAGCCATTCGCCGGA | 0.52
GATCTGACTCAGCAGGGC | 0.27
GCACATCAGCTTGCGAAA | ≥ 1
GCACTTGTAGCGGAAGCG | ≥ 1
GCAGTCCTTTCCTACAAG | 0.95
GCCGGTGAGGAGGGTCCT | 0.71
GCTCAGGGATGACGTAAA | 0.45
GGATGCGCTGACTGATAG | 0.31
GTCTGTGCTGTTGCCAAG | 0.87
GTTGTTGGTCTGGATGCG | 0.63
TAGCCATTGATCTTGATG | 0.78
TCACACACTGGATTCCCA | 0.81
TCACACAGTAGGAAGATC | 0.74
TCACTAGGCGAGTTATAG | 0.53
TCTGGAAACTGTGGATGC | ≥ 1
TGCCCAGAAGGAAACACC | 0.66
TGTATCTGGCAGGTACTG | ≥ 1
TGTCCTTTTACGTTTCTC | 0.74
TTCGGTTCACTCGGCAGA | ≥ 1
TTCTGCACCTTGTCACAC | 0.37
TTGGTGGTATCTGTGCTC | 0.53

— the OligoGym collection
